This is an account of results in article PMC11523249, “Expanding the antiprotozoal activity and the mechanism of action of n-butyl and iso-butyl ester of quinoxaline-1,4-di-N-oxide derivatives against Giardia lamblia, Trichomonas vaginalis, and Entamoeba histolytica. An in vitro and in silico approach” (Journal of Enzyme Inhibition and Medicinal Chemistry, 2024).

Usually IC50 stands for the concentration needed to halve the response being measured. The CC50 is the concentration at which the toxic effect on the cells reaches its halfway point.

The target in data set [1] is T1, recombinant E. histolytica thioredoxin reductase (EhTRXR) (Entamoeba histolytica, UniProt C4LW95).
T1 construct: His-tag (pET28a) (N); made in house; host or cells: E. coli BL21 (DE3)
T1 sequence (C4LW95 1-314): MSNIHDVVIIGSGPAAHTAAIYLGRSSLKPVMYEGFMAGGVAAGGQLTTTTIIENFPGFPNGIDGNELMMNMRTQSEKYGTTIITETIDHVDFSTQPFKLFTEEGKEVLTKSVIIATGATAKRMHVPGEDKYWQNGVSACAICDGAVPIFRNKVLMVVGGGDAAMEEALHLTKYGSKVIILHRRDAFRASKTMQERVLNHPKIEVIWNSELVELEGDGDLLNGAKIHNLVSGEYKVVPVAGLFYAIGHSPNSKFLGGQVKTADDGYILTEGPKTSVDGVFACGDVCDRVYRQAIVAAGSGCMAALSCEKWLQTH
Further details: method as in earlier work. The following applies: ref 34 (Sóto-Sánchez et al. 2020); cited from earlier work.

For data set [2], the system named is E. histolytica strain HM1-IMSS. The data set is described as follows: In vitro susceptibility assay, E. histolytica trophozoites. It counts as cell-based, Entamoeba histolytica. The note with it: Entamoeba histolytica, 48 h, read-out: E. histolytica (IC50 nM), trophozoites, 48 h at 37 °C, subcultured 48 h, Probit analysis. The procedure: (§1) G. lamblia WB strain, T. vaginalis GT3 strain, and E. histolytica strain HM1-IMSS were used in all experiments, all parasitic strains were obtained from the Unidad de Investigación Médica en Enfermedades Infecciosas y Parasitarias, Hospital de Pediatría, Instituto Mexicano del Seguro Social. In vitro susceptibility assays to determine IC50 values were performed using a method previously described. For this, 4 × 10^4 G. lamblia; 6 × 10^3 E. histolytica, or 4 × 10^4 T. vaginalis trophozoites were incubated for 48 h at 37 °C with different concentrations of quinoxaline derivatives T-137 to T-170 (0.5 ng/mL to 10 μg/mL) using dimethyl sulfoxide (DMSO) (0.05%) as solvent. Metronidazole and albendazole were used as positive controls, and parasites in the medium without drugs containing DMSO (0.05%) were included as negative controls. At the end of the incubation period, trophozoites were washed and subcultured for another 48 h in a fresh medium without drugs. Then, trophozoites were counted with a haemocytometer and the IC50 was calculated by Probit analysis. Experiments were carried out in triplicate and repeated at least twice.

The subject of the next data set is T. vaginalis GT3 strain. The experiment in a line: In vitro susceptibility assay, T. vaginalis trophozoites. The following applies: Trichomonas vaginalis, GT3, 48 h, read-out: T. vaginalis (IC50 nM), trophozoites, 48 h at 37 °C, subcultured 48 h, Probit analysis. It counts as cell-based, Trichomonas vaginalis. As for the experimental part:
as §1

Data set [3] is described as follows: Cytotoxic evaluation, MTT colorimetric assay. The data set is classed as cell-based. The following applies: mouse, J774.2 macrophage cell line, murine macrophages J774.2, read-out: Cytotoxicity (Macrophages J774.2) (CC50). As for the experimental part:
The murine macrophage cell line J774.2 was maintained in culture flasks with RPMI 1640 medium supplemented with 10% FBS, and 100 U/mL antibiotic-antifungal mixture (Gibco). Cells were incubated at 37 °C with 5% CO2 and humidity. Murine macrophage cell line J774.2 is maintained at Laboratorio de Estudios Epidemiológicos, Clínicos, Diseños Experimentales e Investigación, Facultad de Ciencias Químicas, Universidad Autónoma “Benito Juárez” de Oaxaca. Macrophages were washed and viability was assessed by the MTT colorimetric assay. In a 96-well microplate, 1 × 10^5 macrophages were added per well and a dose-response assay was performed. Compounds were evaluated using serial dilutions to determine half-maximal cytotoxic concentration (CC50) values in triplicate considering 0.2% DMSO as negative control.

For another data set, the system named is G. lamblia WB strain. The experiment in a line: In vitro susceptibility assay, G. lamblia trophozoites. It counts as cell-based, Giardia lamblia. The note with it: Giardia duodenalis, 48 h, read-out: G. lamblia (IC50 nM), trophozoites, 48 h at 37 °C, subcultured 48 h, Probit analysis. The procedure:
as §1

Some results are limits rather than exact numbers.

Turning to `CCOC(=O)c1c(C(F)(F)F)[n+]([O-])c2ccc(C(=O)OC(C)C)cc2[n+]1[O-]` [Compound T-116], the IC50 in data set [1] was 28 µM.

For `CC(=O)c1c(-c2ccccc2)[n+]([O-])c2ccc(C(=O)OCC(C)C)cc2[n+]1[O-]` [Compound T-168], the IC50 in data set [2] was determined as 50 ± 2.63 nM; in the data set with T. vaginalis GT3 strain, 150 ± 14.5 nM; in the data set on G. lamblia WB strain, 39.5 ± 2.63 nM. The CC50 in data set [3] stood at 28.5 ± 1.69 µM.

In the case of `CC(=O)c1c(Nc2ccc(C)cc2C)[n+]([O-])c2ccc(C(=O)OCC(C)C)cc2[n+]1[O-]` [Compound T-170], the IC50 is 33.1 ± 2.36 nM in data set [2], 130 ± 8.27 nM in the data set with T. vaginalis GT3 strain and 109 ± 3.55 nM in the data set on G. lamblia WB strain. In addition, the CC50 in data set [3] was more than 200 µM.
